This is an account of results in patent US8216580B2, “Sulfatases and methods of use thereof” (The Regents of the University of California, priority 2000, dated 2012).

For data set [1], the system named is Wnt signaling. The data set is described as follows: TCF-luciferase (TOPFlash/FOPFlash) Wnt reporter assay in pancreatic adenocarcinoma cell lines. The data set is classed as cell-based, human. The conditions noted are these: for Wnt activity: 16 hours with conditioned medium of HEK 293 clones. The procedure: (§1) Cells were plated in 24 well plates and transfected with either 0.3 μg TOPFlash or FOPFlash and 0.01 μg Renilla control plasmid (Promega) using Fugene (Roche) according to the manufacturer's procedure. After 48 hours cells were lysed and analyzed utilizing the Dual Luciferase Reporter Assay system (Promega). Luciferase activity was normalized to control Renilla activity.
To search for evidence that endogenous expressed sulfatases in pancreatic adenocarcinoma cell lines regulate Wnt signaling, the method of gene silencing was used. An antisense cDNA against both sulfatases was transiently transfected into four different cell lines. As a control, cells were transfected with a MMP-9 antisense cDNA. Wnt signaling was quantified by TCF-luciferase activity.
HSulf-1 DCC and HSulf-2 DCC mutants are as follows: 1) cysteines 87 and 88 of HSulf-1 (designated as HSulf-1 ΔCC or HSulf-1 DCC) were changed to alanines; and cysteines 88 and 89 of HSulf-2 (designated as HSulf-2 ΔCC or HSulf-2 DCC) were changed to alanines (see Example 9, above).
The effect of conditioned medium derived from the HEK 293 cell lines on Wnt signaling was determined. Pancreatic adenocarcinoma cells were incubated for 16 hours with conditioned medium derived from the described HEK 293 clones; and the TOP/FOPflash system was used to quantify Wnt signaling.
In order to compare proliferation of BxPC3 sil413 cells and mock transfected BxPC3 cells in vitro, GFP+ (HSulf-2 positive) and GFP− (HSulf-2 negative) cells were co-cultured; and the ratio of GFP+ to GFP− cells was followed over time. […] Additionally, using sorted BxPC3 si1413 cells we examined proliferation performing BrdU incorporation experiments (FIG. 21D).
On the technique in general: A reporter such as luciferase makes a cellular process visible.

The nature of data set [2]: Endo-glucosamine-6-sulfatase assay against intact heparin (heparinase digestion, disaccharide HPLC). The data set is classed as biochemical, porcine. The conditions noted are these: for Endo-glucosamine-6-sulfatase activity: 10 μg heparin, pH 7.5, 37° C., 8 hr, means±S.D., three reactions. The procedure: The procedures of Yoshida et al ((1989) Anal. Biochem. 177:327-332) were adapted for these assays. CM from transfected CHO cells (wild-type Sulfs, vector control or the double cysteine mutants) was prepared as described above. The standard reaction mixture contained 5 μmol of Tris-HCl, pH 7.5, 1 μmol of MgCl2, 10 μg of porcine intestinal heparin (Sigma, St. Louis, Mo.) and 20 μl of the 100-fold concentrated CM in a total volume of 100 μl. After incubation at 37° C. for 8 hr, the reaction was stopped by heating at 100° C. for 2 min. A mixture of 1 milliunit of Heparinase I (EC 4.2.2.7, Sigma), 0.25 milliunits of Heparinase II (Sigma) and 0.1 milliunits of Heparinase III (EC 4.2.2.8, Sigma) in 1.5 μl of 50 mM Tris-HCl, pH 7.5, was added to the reaction mixture and incubated at 37° C. for 3 hr. The digestion was stopped by heating at 100° C. for 2 min, and the mixture was filtered by centrifugation in an Ultrafree-MC filter (Millipore).
The disaccharides of the digested heparin were then analyzed by HPLC on a Partisil-10 SAX column (Whatman, Fairfield, N.J.) run at 41° C. Disaccharides were eluted from the column by increasing the ionic strength as follows: time 0-5 min, 12 mM KH2PO4; time 5-40 minutes, gradient from 12 mM to 600 mM; time 40-45 min, 600 mM. Absorbance at 232 nm was monitored and components were identified by comparison with authentic unsaturated disaccharide markers from Sigma, i.e. ΔDiHS-0S, ΔDiHS-6S, ΔDiHS-NS, ΔDiHS-(N,6)diS, ΔDiHS-(N,2)diS and ΔDiHS-(N,6,2)triS. The endo-glucosanine-6-sulfatase activities of human Sulf-1 and Sulf-2 against heparin proceeded linearly up to 10 hr under these conditions. In other assays, 10 μg of chondroitin 6-sulfate was employed as a substrate in the standard assay. After incubation with CM, 15 milliunits of Chondroitinase ABC (EC 4.2.2.4, Sigma) was used to fragment the chondroitin sulfate. The standards used were as follows: ΔDi-0S, ΔDi-6S, ΔDi-4S, ΔDi-diSD(2,6) and ΔDi-diSE(4,6). All were from Oxford GlycoSystems Inc.
Intact heparin (10 μg) was treated with conditioned medium from Sulf transfected CHO cells. To analyze activity on specific sulfation modifications, we digested the treated heparin with a mixture of bacterial heparinases and analyzed the disaccharide products by HPLC using standards (Yoshida, supra). Both HSulf-1 CM and Hsulf-2 CM produced an ≈80% reduction in the amount of trisulfated units ([…]) corresponding to IdoA2S-GlcNS6S and a parallel increase in that of disulfated units (ΔDiHS-(N,2)diS) corresponding to IdoA2S-GlcNS (FIG. 16A-C). There were no effects on the disulfated units ΔDiHS-(N,6)diS, monosulfated or non-sulfated units. Specific activities were calculated based on the volume of CM (Table 3). The endosulfatase activities of Sulf-1 and Sulf-2 CM were increased 9-fold and 10-fold respectively relative to CM from mock transfected cells (Table 3). […] Further selectivity of the endosulfatase activity was indicated when we employed chondroitin 6-sulfate as a substrate. […] Thus the Sulfs are active against intact heparin.
Endo-glucosamine-6-sulfatase activity was measured against intact heparin as described in above using CM derived from CHO cells transfected with the indicated vectors. HSulf-1 ΔCC and HSulf-2 ΔCC denote the CC87, 88AA and CC88, 89AA mutants, respectively. Endosulfatase activity was defined by calculating the moles of unsaturated trisulfated disaccharides from which the sulfate group on C-6 position was liberated in the standard assay (FIGS. 16A-F) by the Sulfs as compared to levels in untreated control samples. Values shown are means±S.D. based on three independent reactions.

Data set [3] has as its system Wnt signaling. Nature of the data set: TCF-luciferase (TOPFlash/FOPFlash) Wnt reporter assay in HEK 293 cells co-cultured with Wnt-expressing 3T3 fibroblasts. The data set is classed as cell-based, human. The conditions noted are these: stably transfected HEK 293 cells co-cultured with Wnt1 or Wnt4 expressing 3T3 fibroblasts. The procedure: as §1
To assay HSulf influence on Wnt signaling in HEK 293 cells, HEK 293 cells were transfected with TOP/FOPFlash and Renilla control plasmid. 24 hours later the medium was changed, and Wnt1-transfected 3T3 […] fibroblasts were added. 24 hours later, Luciferase activity was measured, as described above.
Dhoot et al. (2001) supra; Ai et al. (2003) J Cell Biol 162:341-351. In order to determine if the human Sulfs affect Wnt signaling, the effect of HSulf-1 and -2, when overexpressed in a heterologous expression system on Wnt signaling, was analyzed. For this purpose, HEK 293 cells stably transfected with either HSulf-1 (HS1) or HSulf-2 (HS2) were co-cultured with Wnt1 or Wnt4 expressing 3T3 fibroblasts. Wnt activity was measured by utilizing a quantitative TCF-luciferase reporter gene (FOPFlash/TOPFlash system). van de Wetering et al. (1997) Cell 88:789-799.

Setting [4] is: CM from transfected CHO cells, intact heparin 10 μg.

“HSulf-2 ΔCC: catalytically inactive HSulf-2, cysteines 88 and 89 mutated to alanines (CC88, 89AA)”: the Wnt activity result in data set [1] (CFPAC-1 cells) was “did no respond”; in data set [1] (cell lines inhibited in proliferation), “significant decrease”. The “inhibition of Wnt signaling (TCF-luciferase activity)” value in data set [1] (transient transfection, in three of the four examined pancreatic adenocarcinoma cell lines) was “about 50%”. Besides, the Endo-glucosamine-6-sulfatase activity in data set [2] (CM from transfected CHO cells) was 5.6 ± 0.6 pmol/hr/ml of medium.
Take “HSulf-2: Human SULF2, an 870 amino acid sulfatase protein, SEQ ID NO:06; expressed with C-terminal Myc-His tag”: the Endo-glucosamine-6-sulfatase activity in data set [2] (CM from transfected CHO cells) was 96.6 ± 0.5 pmol/hr/ml of medium. Besides, in data set [2] (setting [4]), the “effects on the disulfated units ΔDiHS-(N,6)diS, monosulfated or non-sulfated units” value was “no effects” and the “reduction in the amount of trisulfated units ([…]) corresponding to IdoA2S-GlcNS6S” value is recorded as “≈ 80%”. Also, in data set [2] (based on Table 3), the “endosulfatase activity increase relative to CM from mock transfected cells” value came to 10 fold. In addition, the “removal of sulfate from the 6-position of glucosamine within the tri-sulfated units” value in data set [2] (intact heparin, neutral pH) was 80%. In addition, in data set [3], the “increase of Wnt activity” value is reported as “two-fold”.
